Source: ChEMBL document CHEMBL1138025, “Nocathiacin I analogues: synthesis, in vitro and in vivo biological activity of novel semi-synthetic thiazolyl peptide antibiotics” (Bioorg Med Chem Lett, 2004)
≈ marks a conversion by molar mass, not a printed value.

Assays:
Staphylococcus aureus = assay: In vitro antibacterial activity against methicillin-sensitive Staphylococcus aureus A15090; type: functional
Enterococcus faecalis = assay: In vitro antibacterial activity against methicillin-sensitive Enterococcus faecalis A20688; type: functional
Streptococcus pneumoniae = assay: In vitro antibacterial activity against penicillin-resistant Streptococcus pneumoniae A28272; type: functional
Mus musculus = assay: In vivo efficacy (PD50) against lethal Staphylococcus aureus systemic infection model in mice; type: functional; conditions: read-out: PD50
[1] = Equilibrium water solubility at pH 3.1; type: physicochemical
[2] = Equilibrium water solubility at pH 3.0; type: physicochemical
[3] = Equilibrium water solubility at pH 3.4; type: physicochemical
[4] = Equilibrium water solubility at pH 2.9; type: physicochemical

| Compound | MIC (Staphylococcus aureus) [µg/mL] | MIC (Enterococcus faecalis) [µg/mL] | MIC (Streptococcus pneumoniae) [µg/mL] | ED50 (Mus musculus) [mg/kg] | solubility thermodynamic [1] [µg/mL] | solubility thermodynamic [2] [µg/mL] | solubility thermodynamic [3] [µg/mL] | solubility thermodynamic [4] [µg/mL] |
| --- | --- | --- | --- | --- | --- | --- | --- | --- |
| CO/C(C)=C1/NC(=O)[C@H]([C@@H](C)O)NC(=O)c2csc(n2)-c2cc(O)c(-c3nc(C(=O)NC(CN4CCOCC4)C(N)=O)cs3)nc2-c2csc(n2)[C@@H]2COC(=O)c3c4c5c(cccc5n3O)COC(=O)[C@@H](O[C@H]3C[C@](C)(O)[C@H](N(C)C)[C@H](C)O3)[C@@H](OC4)[C@H](NC(=O)c3csc1n3)c1nc(cs1)C(=O)N2 (stereo partly drawn) | 0.007 (≈ 0.00459 µM) | 0.01 (≈ 0.00656 µM) | 0.01 (≈ 0.00656 µM) | 0.8 | > 2100 | – | – | – |
| CCOC(=O)CN1CCN(CC(NC(=O)c2csc(-c3nc4c(cc3O)-c3nc(cs3)C(=O)N[C@@H]([C@@H](C)O)C(=O)N/C(=C(\C)OC)c3nc(cs3)C(=O)N[C@@H]3c5nc(cs5)C(=O)N[C@@H](COC(=O)c5c6c7c(cccc7n5O)COC(=O)[C@@H](O[C@H]5C[C@](C)(O)[C@H](N(C)C)[C@H](C)O5)[C@H]3OC6)c3nc-4cs3)n2)C(N)=O)CC1 (stereo partly drawn) | 0.06 (≈ 0.0373 µM) | 0.25 (≈ 0.155 µM) | 0.007 (≈ 0.00435 µM) | – | – | – | – | – |
| CO/C(C)=C1/NC(=O)[C@H]([C@@H](C)O)NC(=O)c2csc(n2)-c2cc(O)c(-c3nc(C(=O)NC(CN(C)CCCNc4ccncc4)C(N)=O)cs3)nc2-c2csc(n2)[C@@H]2COC(=O)c3c4c5c(cccc5n3O)COC(=O)[C@@H](O[C@H]3C[C@](C)(O)[C@H](N(C)C)[C@H](C)O3)[C@@H](OC4)[C@H](NC(=O)c3csc1n3)c1nc(cs1)C(=O)N2 (stereo partly drawn) | 1 (≈ 0.624 µM) | 0.5 (≈ 0.312 µM) | 0.25 (≈ 0.156 µM) | > 10 | – | > 3000 | – | – |
| CO/C(C)=C1/NC(=O)[C@H]([C@@H](C)O)NC(=O)c2csc(n2)-c2cc(O)c(-c3nc(C(=O)NC(CN(C)CCN4CCCCC4)C(N)=O)cs3)nc2-c2csc(n2)[C@@H]2COC(=O)c3c4c5c(cccc5n3O)COC(=O)[C@@H](O[C@H]3C[C@](C)(O)[C@H](N(C)C)[C@H](C)O3)[C@@H](OC4)[C@H](NC(=O)c3csc1n3)c1nc(cs1)C(=O)N2 (stereo partly drawn) | 0.12 (≈ 0.076 µM) | 1 (≈ 0.633 µM) | 0.03 (≈ 0.019 µM) | 3.2 | – | > 2700 | – | – |
| CO/C(C)=C1/NC(=O)[C@H]([C@@H](C)O)NC(=O)c2csc(n2)-c2cc(O)c(-c3nc(C(=O)NC(CN4CCN(CCN(C)C)CC4)C(N)=O)cs3)nc2-c2csc(n2)[C@@H]2COC(=O)c3c4c5c(cccc5n3O)COC(=O)[C@@H](O[C@H]3C[C@](C)(O)[C@H](N(C)C)[C@H](C)O3)[C@@H](OC4)[C@H](NC(=O)c3csc1n3)c1nc(cs1)C(=O)N2 (stereo partly drawn) | 0.5 (≈ 0.314 µM) | 0.12 (≈ 0.0752 µM) | 0.25 (≈ 0.157 µM) | 5.3 | – | – | > 3800 | – |
| CNCC(NC(=O)c1csc(-c2nc3c(cc2O)-c2nc(cs2)C(=O)N[C@@H]([C@@H](C)O)C(=O)N/C(=C(\C)OC)c2nc(cs2)C(=O)N[C@@H]2c4nc(cs4)C(=O)N[C@@H](COC(=O)c4c5c6c(cccc6n4O)COC(=O)[C@@H](O[C@H]4C[C@](C)(O)[C@H](N(C)C)[C@H](C)O4)[C@H]2OC5)c2nc-3cs2)n1)C(N)=O (stereo partly drawn) | 2 (≈ 1.36 µM) | 8 (≈ 5.45 µM) | 0.001 (≈ 0.000681 µM) | 1.6 | – | – | – | > 3500 |
| CO/C(C)=C1/NC(=O)[C@H]([C@@H](C)O)NC(=O)c2csc(n2)-c2cc(O)c(-c3nc(C(=O)NC(CN(CCO)CCO)C(N)=O)cs3)nc2-c2csc(n2)[C@@H]2COC(=O)c3c4c5c(cccc5n3O)COC(=O)[C@@H](O[C@H]3C[C@](C)(O)[C@H](N(C)C)[C@H](C)O3)[C@@H](OC4)[C@H](NC(=O)c3csc1n3)c1nc(cs1)C(=O)N2 (stereo partly drawn) | 0.12 (≈ 0.0778 µM) | 0.25 (≈ 0.162 µM) | 0.01 (≈ 0.00648 µM) | 5 | – | – | – | > 1700 |
| CO/C(C)=C1/NC(=O)[C@H]([C@@H](C)O)NC(=O)c2csc(n2)-c2cc(O)c(-c3nc(C(=O)NC(CN4CCN(c5ccncc5)CC4)C(N)=O)cs3)nc2-c2csc(n2)[C@@H]2COC(=O)c3c4c5c(cccc5n3O)COC(=O)[C@@H](O[C@H]3C[C@](C)(O)[C@H](N(C)C)[C@H](C)O3)[C@@H](OC4)[C@H](NC(=O)c3csc1n3)c1nc(cs1)C(=O)N2 (stereo partly drawn) | 0.25 (≈ 0.156 µM) | 0.5 (≈ 0.312 µM) | 0.06 (≈ 0.0375 µM) | 4.5 | – | > 12500 | – | – |
| CO/C(C)=C1/NC(=O)[C@H]([C@@H](C)O)NC(=O)c2csc(n2)-c2cc(O)c(-c3nc(C(=O)NC(CN(C)CCO)C(N)=O)cs3)nc2-c2csc(n2)[C@@H]2COC(=O)c3c4c5c(cccc5n3O)COC(=O)[C@@H](O[C@H]3C[C@](C)(O)[C@H](N(C)C)[C@H](C)O3)[C@@H](OC4)[C@H](NC(=O)c3csc1n3)c1nc(cs1)C(=O)N2 (stereo partly drawn) | 0.01 (≈ 0.00661 µM) | 0.06 (≈ 0.0397 µM) | 0.01 (≈ 0.00661 µM) | 0.8 | – | – | > 10000 | – |
| CO/C(C)=C1/NC(=O)[C@H]([C@@H](C)O)NC(=O)c2csc(n2)-c2cc(O)c(-c3nc(C(=O)NC(CN4CCN(CCN5CCOCC5)CC4)C(N)=O)cs3)nc2-c2csc(n2)[C@@H]2COC(=O)c3c4c5c(cccc5n3O)COC(=O)[C@@H](O[C@H]3C[C@](C)(O)[C@H](N(C)C)[C@H](C)O3)[C@@H](OC4)[C@H](NC(=O)c3csc1n3)c1nc(cs1)C(=O)N2 (stereo partly drawn) | 0.25 (≈ 0.153 µM) | 0.5 (≈ 0.305 µM) | 0.06 (≈ 0.0367 µM) | 1.4 | – | > 12300 | – | – |
| CO/C(C)=C1/NC(=O)[C@H]([C@@H](C)O)NC(=O)c2csc(n2)-c2cc(O)c(-c3nc(C(=O)NC(CN4CCCC4)C(N)=O)cs3)nc2-c2csc(n2)[C@@H]2COC(=O)c3c4c5c(cccc5n3O)COC(=O)[C@@H](O[C@H]3C[C@](C)(O)[C@H](N(C)C)[C@H](C)O3)[C@@H](OC4)[C@H](NC(=O)c3csc1n3)c1nc(cs1)C(=O)N2 (stereo partly drawn) | 0.06 (≈ 0.0398 µM) | 0.5 (≈ 0.331 µM) | 0.01 (≈ 0.00663 µM) | 2.5 | – | – | – | > 3000 |
| CNCCN(C)CC(NC(=O)c1csc(-c2nc3c(cc2O)-c2nc(cs2)C(=O)N[C@@H]([C@@H](C)O)C(=O)N/C(=C(\C)OC)c2nc(cs2)C(=O)N[C@@H]2c4nc(cs4)C(=O)N[C@@H](COC(=O)c4c5c6c(cccc6n4O)COC(=O)[C@@H](O[C@H]4C[C@](C)(O)[C@H](N(C)C)[C@H](C)O4)[C@H]2OC5)c2nc-3cs2)n1)C(N)=O (stereo partly drawn) | 0.06 (≈ 0.0393 µM) | 0.5 (≈ 0.328 µM) | 0.001 (≈ 0.000655 µM) | > 10 | – | > 2800 | – | – |
| CO/C(C)=C1/NC(=O)[C@H]([C@@H](C)O)NC(=O)c2csc(n2)-c2cc(O)c(-c3nc(C(=O)NC(CN4CCN(c5cccnc5)CC4)C(N)=O)cs3)nc2-c2csc(n2)[C@@H]2COC(=O)c3c4c5c(cccc5n3O)COC(=O)[C@@H](O[C@H]3C[C@](C)(O)[C@H](N(C)C)[C@H](C)O3)[C@@H](OC4)[C@H](NC(=O)c3csc1n3)c1nc(cs1)C(=O)N2 (stereo partly drawn) | 0.06 (≈ 0.0375 µM) | 0.25 (≈ 0.156 µM) | 0.007 (≈ 0.00437 µM) | 1.43 | – | > 2300 | – | – |
| CO/C(C)=C1/NC(=O)[C@H]([C@@H](C)O)NC(=O)c2csc(n2)-c2cc(O)c(-c3nc(C(=O)NC(CN4CCN(CCOCCO)CC4)C(N)=O)cs3)nc2-c2csc(n2)[C@@H]2COC(=O)c3c4c5c(cccc5n3O)COC(=O)[C@@H](O[C@H]3C[C@](C)(O)[C@H](N(C)C)[C@H](C)O3)[C@@H](OC4)[C@H](NC(=O)c3csc1n3)c1nc(cs1)C(=O)N2 (stereo partly drawn) | 0.5 (≈ 0.31 µM) | 1 (≈ 0.62 µM) | 0.12 (≈ 0.0745 µM) | 1.34 | > 3000 | – | – | – |
| CO/C(C)=C1/NC(=O)[C@H]([C@@H](C)O)NC(=O)c2csc(n2)-c2cc(O)c(-c3nc(C(=O)NC(CN4CCN(C)CC4)C(N)=O)cs3)nc2-c2csc(n2)[C@@H]2COC(=O)c3c4c5c(cccc5n3O)COC(=O)[C@@H](O[C@H]3C[C@](C)(O)[C@H](N(C)C)[C@H](C)O3)[C@@H](OC4)[C@H](NC(=O)c3csc1n3)c1nc(cs1)C(=O)N2 (stereo partly drawn) | 0.25 (≈ 0.163 µM) | 0.5 (≈ 0.325 µM) | 0.12 (≈ 0.078 µM) | 1.4 | – | – | > 10000 | – |
| CO/C(C)=C1/NC(=O)[C@H]([C@@H](C)O)NC(=O)c2csc(n2)-c2cc(O)c(-c3nc(C(=O)NC(CNCCc4ccccn4)C(N)=O)cs3)nc2-c2csc(n2)C2COC(=O)c3c4c5c(cccc5n3O)COC(=O)[C@@H](O[C@H]3C[C@](C)(O)[C@H](N(C)C)[C@H](C)O3)[C@@H](OC4)[C@H](NC(=O)c3csc1n3)c1nc(cs1)C(=O)N2 (stereo partly drawn) | 1 (≈ 0.641 µM) | 1 (≈ 0.641 µM) | 0.25 (≈ 0.16 µM) | 2.8 | – | – | > 10000 | – |
| CO/C(C)=C1/NC(=O)[C@H]([C@@H](C)O)NC(=O)c2csc(n2)-c2cc(O)c(-c3nc(C(=O)NC(CNCCN(C)C)C(N)=O)cs3)nc2-c2csc(n2)[C@@H]2COC(=O)c3c4c5c(cccc5n3O)COC(=O)[C@@H](O[C@H]3C[C@](C)(O)[C@H](N(C)C)[C@H](C)O3)[C@@H](OC4)[C@H](NC(=O)c3csc1n3)c1nc(cs1)C(=O)N2 (stereo partly drawn) | 2 (≈ 1.31 µM) | 4 (≈ 2.62 µM) | 0.03 (≈ 0.0197 µM) | 4.2 | > 3800 | – | – | – |
| CO/C(C)=C1/NC(=O)[C@H]([C@@H](C)O)NC(=O)c2csc(n2)-c2cc(O)c(-c3nc(C(=O)NC(CN4CCN(c5ccccn5)CC4)C(N)=O)cs3)nc2-c2csc(n2)[C@@H]2COC(=O)c3c4c5c(cccc5n3O)COC(=O)[C@@H](O[C@H]3C[C@](C)(O)[C@H](N(C)C)[C@H](C)O3)[C@@H](OC4)[C@H](NC(=O)c3csc1n3)c1nc(cs1)C(=O)N2 (stereo partly drawn) | 0.12 (≈ 0.075 µM) | 0.25 (≈ 0.156 µM) | 0.03 (≈ 0.0187 µM) | < 0.62 | – | > 2400 | – | – |
| CO/C(C)=C1/NC(=O)[C@H]([C@@H](C)O)NC(=O)c2csc(n2)-c2cc(O)c(-c3nc(C(=O)NC(CNCCNC(C)=O)C(N)=O)cs3)nc2-c2csc(n2)[C@@H]2COC(=O)c3c4c5c(cccc5n3O)COC(=O)[C@@H](O[C@H]3C[C@](C)(O)[C@H](N(C)C)[C@H](C)O3)[C@@H](OC4)[C@H](NC(=O)c3csc1n3)c1nc(cs1)C(=O)N2 (stereo partly drawn) | 1 (≈ 0.649 µM) | 4 (≈ 2.6 µM) | 0.12 (≈ 0.0779 µM) | > 10 | > 3000 | – | – | – |
